PubChem BioAssay AID248 (DTP/NCI, 2004)
Where “and” joins values, the source holds several entries; their conditions need not be identical. Equal values may be shown once. Inconclusive results and toxic doses are left out. Rule as the data show it: active = T/C of 150% or more; inactive = T/C below 125%.

System: L1210 leukemia ip in BDF1 mice, survival T/C
Assay: NCI In Vivo Anticancer Drug Screen. Data for tumor model L1210 Leukemia (intraperitoneal) in B6D2F1 (BDF1) mice
Details: higher = longer survival
Procedure, shortened: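 Tumor was transplanted into mice, which were then dosed with test compound or vehicle alone. Survival was recorded for each group, and the treated figure was expressed relative to the control figure.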

[1] = endpoint: mean survival time, dose: 50.0 mg/kg/injection, schedule: Q01DX009 (ip), vehicle: Klucel (hydroxypropylcellulose) (HPC)
[2] = endpoint: mean survival time, dose: 100.0 mg/kg/injection, schedule: Q01DX009 (ip), vehicle: Klucel (hydroxypropylcellulose) (HPC)
[3] = endpoint: mean survival time, dose: 200.0 mg/kg/injection, schedule: Q01DX009 (ip), vehicle: Klucel (hydroxypropylcellulose) (HPC)
[4] = endpoint: mean survival time, dose: 100.0 mg/kg/injection, schedule: Q01DX001 (ip), vehicle: saline
[5] = endpoint: mean survival time, dose: 100.0 mg/kg/injection, schedule: Q04DX003 (ip), vehicle: saline
[6] = endpoint: mean survival time, dose: 200.0 mg/kg/injection, schedule: Q04DX003 (ip), vehicle: saline
[7] = endpoint: mean survival time, dose: 400.0 mg/kg/injection, schedule: Q04DX003 (ip), vehicle: saline
[8] = endpoint: mean survival time, dose: 100.0 mg/kg/injection, schedule: Q04DX003 (ip), vehicle: Klucel (hydroxypropylcellulose) (HPC)
[9] = endpoint: mean survival time, dose: 200.0 mg/kg/injection, schedule: Q04DX003 (ip), vehicle: Klucel (hydroxypropylcellulose) (HPC)
[10] = endpoint: mean survival time, dose: 400.0 mg/kg/injection, schedule: Q04DX003 (ip), vehicle: Klucel (hydroxypropylcellulose) (HPC)
[11] = endpoint: mean survival time, dose: 50.0 mg/kg/injection, schedule: Q04DX002 (ip), vehicle: Klucel (hydroxypropylcellulose) (HPC)
[12] = endpoint: mean survival time, dose: 100.0 mg/kg/injection, schedule: Q04DX002 (ip), vehicle: Klucel (hydroxypropylcellulose) (HPC)
[13] = endpoint: mean survival time, dose: 200.0 mg/kg/injection, schedule: Q04DX002 (ip), vehicle: Klucel (hydroxypropylcellulose) (HPC)
[14] = endpoint: mean survival time, dose: 400.0 mg/kg/injection, schedule: Q04DX002 (ip), vehicle: Klucel (hydroxypropylcellulose) (HPC)

Measured: T/C

COC(=O)c1cccc(N=NN(C)C)c1
inactive: [1] 105 % of control | [2] 119 % of control | [3] 108 % of control | endpoint: median survival time, dose: 23.0 mg/kg/injection, schedule: Q01DX009 (ip), vehicle: steriod suspending solution 110 % of control | endpoint: median survival time, dose: 65.0 mg/kg/injection, schedule: Q01DX001 (ip), vehicle: steriod suspending solution 100 % of control | endpoint: median survival time, dose: 65.0 mg/kg/injection, schedule: Q04DX003 (ip), vehicle: steriod suspending solution 105 % of control | endpoint: median survival time, dose: 108.0 mg/kg/injection, schedule: Q01DX001 (ip), vehicle: steriod suspending solution 100 % of control | endpoint: median survival time, dose: 108.0 mg/kg/injection, schedule: Q04DX003 (ip), vehicle: steriod suspending solution 110 % of control | endpoint: median survival time, dose: 180.0 mg/kg/injection, schedule: Q01DX001 (ip), vehicle: steriod suspending solution 110 % of control | endpoint: median survival time, dose: 300.0 mg/kg/injection, schedule: Q01DX001 (ip), vehicle: steriod suspending solution 110 % of control | endpoint: median survival time, dose: 833.0 mg/kg/injection, schedule: Q01DX001 (ip), vehicle: steriod suspending solution 100 % of control

CC(=O)N(C)c1cc([N+](=O)[O-])ccc1OCc1ccccc1
inactive: endpoint: mean survival time, dose: 50.0 mg/kg/injection, schedule: Q01DX001 (ip), vehicle: saline 102 % of control | [4] 96 % of control

NC(=O)CNCCS(=O)(=O)O
inactive: endpoint: mean survival time, dose: 100.0 mg/kg/injection, schedule: Q01DX009 (ip), vehicle: saline 101 % of control | [5] 97 % of control | endpoint: mean survival time, dose: 200.0 mg/kg/injection, schedule: Q01DX009 (ip), vehicle: saline 107 % of control | [6] 97 % of control | endpoint: mean survival time, dose: 400.0 mg/kg/injection, schedule: Q01DX009 (ip), vehicle: saline 101 % of control | [7] 100 % of control

Cc1cccc(Cl)c1NC(=S)NCc1ccco1
inactive: [2] 98 % of control | [3] 98 % of control | endpoint: mean survival time, dose: 400.0 mg/kg/injection, schedule: Q01DX009 (ip), vehicle: Klucel (hydroxypropylcellulose) (HPC) 102 % of control

CCCCCCCCCC(=O)N(C)OC
inactive: endpoint: mean survival time, dose: 100.0 mg/kg/injection, schedule: Q04DX003 (ip), vehicle: saline with Tween-80 87 % of control | endpoint: mean survival time, dose: 200.0 mg/kg/injection, schedule: Q04DX003 (ip), vehicle: saline with Tween-80 88 % of control | endpoint: mean survival time, dose: 400.0 mg/kg/injection, schedule: Q04DX003 (ip), vehicle: saline with Tween-80 92 % of control

C=CCNC(=S)Nc1ccc(C)cc1
inactive: [1] 95 % of control | [2] 97 % of control | [8] 103 % of control | [3] 100 % of control | [9] 101 % of control | [10] 88 % of control

Cc1ccc(S/N=C\c2ccccc2O)cc1
inactive: [11] 93 % of control | [12] 100 % of control | [13] 107 % of control and 91 % of control | [14] 91 % of control

CCCCCCCCCC(=O)CCCCCCC
inactive: endpoint: mean survival time, dose: 25.0 mg/kg/injection, schedule: Q01DX009 (ip), vehicle: other 105 % of control | endpoint: mean survival time, dose: 50.0 mg/kg/injection, schedule: Q01DX009 (ip), vehicle: other 102 % of control | endpoint: mean survival time, dose: 100.0 mg/kg/injection, schedule: Q01DX009 (ip), vehicle: other 95 % of control and 97 % of control | endpoint: mean survival time, dose: 400.0 mg/kg/injection, schedule: Q01DX009 (ip), vehicle: other 98 % of control

O=[N+]([O-])c1cc(Br)cc(Br)c1O
inactive: endpoint: mean survival time, dose: 25.0 mg/kg/injection, schedule: Q04DX002 (ip), vehicle: Klucel (hydroxypropylcellulose) (HPC) 109 % of control | [11] 98 % of control | [12] 98 % of control and 91 % of control

C[Si](C)(C)Cc1ccc(Cl)cc1
inactive: endpoint: mean survival time, dose: 111.0 mg/kg/injection, schedule: Q01DX Z (ip), vehicle: saline 104 % of control | endpoint: mean survival time, dose: 166.0 mg/kg/injection, schedule: Q01DX Z (ip), vehicle: saline 91 % of control | endpoint: mean survival time, dose: 250.0 mg/kg/injection, schedule: Q01DX Z (ip), vehicle: saline 98 % of control

COC(=O)CC1(CC(=O)OC)C(=O)N(c2ccccc2)c2ccccc21
inactive: endpoint: mean survival time, dose: 100.0 mg/kg/injection, schedule: Q01DX001 (ip), vehicle: Klucel (hydroxypropylcellulose) (HPC) 90 % of control | endpoint: mean survival time, dose: 200.0 mg/kg/injection, schedule: Q01DX001 (ip), vehicle: Klucel (hydroxypropylcellulose) (HPC) 93 % of control | endpoint: mean survival time, dose: 400.0 mg/kg/injection, schedule: Q01DX001 (ip), vehicle: Klucel (hydroxypropylcellulose) (HPC) 93 % of control

CC(C)C1(NC(=O)C2C=C3c4cccc5[nH]cc(c45)CC3N(C)C2)OC2(O)C3CCCN3C(=O)C(Cc3ccccc3)N2C1=O (configuration not stated) (tested in a mixture with another compound)
inactive: [4] 107 % of control | endpoint: mean survival time, dose: 200.0 mg/kg/injection, schedule: Q01DX001 (ip), vehicle: saline 102 % of control | endpoint: mean survival time, dose: 400.0 mg/kg/injection, schedule: Q01DX001 (ip), vehicle: saline 100 % of control

COc1ccc2c(CSc3ncnc4nc[nH]c34)cc(=O)oc2c1
inactive: [13] 94 % of control | [14] 94 % of control

O=C1CCC(N2C(=O)C3C4C=CC(CC4)C3C2=O)C(=O)N1 (configuration not stated)
inactive: [5] 97 % of control | [6] 102 % of control | [7] 90 % of control

O=C(O)c1cc(-c2cccs2)c(C(=O)O)s1
inactive: endpoint: mean survival time, dose: 100.0 mg/kg/injection, schedule: Q04DX003 (ip), vehicle: other 103 % of control | endpoint: mean survival time, dose: 200.0 mg/kg/injection, schedule: Q04DX003 (ip), vehicle: other 93 % of control

CC(=O)N1CCCC(=O)CCCCCCC1=O
inactive: endpoint: mean survival time, dose: 50.0 mg/kg/injection, schedule: Q04DX003 (ip), vehicle: saline 95 % of control | [5] 103 % of control | [6] 88 % of control

CCOC(=O)c1c[nH]c(C)c1C
inactive: [8] 104 % of control | [9] 109 % of control | [10] 105 % of control

CNc1[nH]c(=S)ncc1C
inactive: endpoint: mean survival time, dose: 100.0 mg/kg/injection, schedule: Q01DX Z (ip), vehicle: methylcellulose (MC) 100 % of control | endpoint: mean survival time, dose: 200.0 mg/kg/injection, schedule: Q01DX Z (ip), vehicle: methylcellulose (MC) 99 % of control

Cc1ccc(-n2c(O)c(C=N)c(=O)[nH]c2=O)cc1
inactive: endpoint: mean survival time, dose: 100.0 mg/kg/injection, schedule: Q01DX009 (ip), vehicle: saline with Tween-80 97 % of control | endpoint: mean survival time, dose: 200.0 mg/kg/injection, schedule: Q01DX009 (ip), vehicle: saline with Tween-80 93 % of control

Cc1cc(Cc2cc(C)c(O)c(C(C)(C)C)c2)cc(C(C)(C)C)c1O
inactive: endpoint: mean survival time, dose: 50.0 mg/kg/injection, schedule: Q04DX002 (ip), vehicle: other 93 % of control | endpoint: mean survival time, dose: 100.0 mg/kg/injection, schedule: Q04DX002 (ip), vehicle: other 87 % of control | endpoint: mean survival time, dose: 200.0 mg/kg/injection, schedule: Q04DX002 (ip), vehicle: other 90 % of control

CC(=O)OC1CC2CC(C1C)C2(C)C (configuration not stated)
inactive: endpoint: mean survival time, dose: 12.5 mg/kg/injection, schedule: Q01DX009 (ip), vehicle: saline with Tween-80 105 % of control | endpoint: mean survival time, dose: 25.0 mg/kg/injection, schedule: Q01DX009 (ip), vehicle: saline with Tween-80 91 % of control | endpoint: mean survival time, dose: 50.0 mg/kg/injection, schedule: Q01DX009 (ip), vehicle: saline with Tween-80 100 % of control

CCN(Cc1ccccc1)C(=O)Nc1ccccc1
inactive: [12] 101 % of control | [13] 93 % of control | [14] 97 % of control
